Residues, ends and D or L forms follow the SMILES beside them. *: point of attachment. X1 = Cn1c2ccccc2c2ccnc(-c3ccc(/C=C/C(=O)*)cn3)c21
Columns and labels:
PC-3 cells = experiment: Clonogenic assay; type: cell-based, human; conditions: 5 μM, blue light irradiation, 10 days, versus control cells
Method: The effect of the metallopeptides Ir-BN and Ru-BN as well as of the complexes Ir-H and Ru-H on the viability of PC-3 cells was next investigated through clonogenic assays, which determine the fraction of cells that survive treatment and retain the ability to generate new colonies.[56] This is a crucial feature of metastatic cancer cells, which need to proliferate in distant tissues to create secondary tumors. For this purpose, PC-3 cells were treated with the compounds at an equimolar concentration of 5 μM with or without photoactivation with blue light. Ten days later, the number of cells that survived and were able to grow and form colonies was assessed in comparison to control cells. Cells treated with cisplatin were used as a positive control.
Figure 8 Clonogenic assay. PC-3 cells were treated with the indicated compounds at 5 μM in the dark and with blue light irradiation. Control cells were treated with the medium alone. Cisplatin was used as a positive control. Cells were incubated for 10 days to allow colony formation. (A) Images of the colonies. (B) Bar charts representing the percentage of colonies versus control cells after each treatment (mean ± SD of 3 experiments). ** p < 0.01; *** p < 0.001 versus control cells.
PC-3 cells were seeded at a density of 100000 cells per well in 12-well plates and allowed to adhere for 24 h. The cells were treated with the compounds […] for 4 h and subsequently irradiated with blue light or kept in the dark for one hour. The treatments were then removed, and the cells were washed with PBS, harvested by trypsinization, and counted using a Novocyte flow cytometer (Agilent Technologies). Subsequently, 3000 cells were seeded in 5 cm culture dishes and incubated for 10 days to allow colonies to form. A colony was defined to consist of at least 50 cells. Cells treated with cisplatin (5 μM) were used as a positive control, and cells treated with the culture medium alone were used as a negative control. […] Each compound was evaluated in triplicate.

[1] = n-octanol/PBS partition coefficient, shake flask; type: physicochemical; conditions: UV/vis
Method: First, the n-octanol/PBS partition coefficient values, log Poct/PBS, of the metal PSs were experimentally determined to quantify their lipophilicity (Figure S56). Indeed, the shake flask method was employed, and the metal content was measured in both phases by UV/vis spectroscopy. […]
an integrating sphere. For the determination of the luminescence lifetime, the fluorescence decay was measured on a FLS980 spectrofluorometer equipped with a TSCPC laser (Ir(III) complexes: λ ex = 405 nm; Ru(II) complexes: λ ex = 450 nm) and a REDPMT detector. The F980 spectrometer operating software was used to collect and process luminescence lifetime data.
Photostability of Ir(III) and Ru(II) complexes. The photostability of Ir(III) or Ru(II) complexes was monitored by 1H RMN. The 1.5 × 10−2 M solutions of the complexes in DMSO-d6:D2O (3:2) at 25 °C were irradiated with blue LED light (λ irr = 460 nm, 24 W) for different intervals of time. […]
Singlet oxygen generation. The capacity of Ir-Me and Ru-Me to generate singlet oxygen ( 1O2) was determined by an indirect method using 9,10-anthracenediyl-bis(methylene) dimalonic acid (ABDA) as a probe. The reaction between ABDA and 1O2 was monitored by UV-Vis and the gradual decrease of the maximum at 379 nm was used to quantify the ability of our complexes to generate 1O2. Aerated solutions of ABDA (8 × 10^-5 M) and the corresponding PS in H2O:DMSO (50:50) were irradiated with a blue LED strip (λ ir = 460 nm; 24 W) at room temperature for intervals of 5 minutes (0 min → 100 min) and UV-Vis spectra were recorded after every irradiation interval. Concentrations of PS were tuned to achieve similar values of absorbance at 460 nm (A460 nm ≈ 0.06). The singlet oxygen quantum yield (φ) was determined using Rose Bengal (RB) as standard reference (φ Δ = 0.75)6 and the following equation:7 […]
where kPS and kRB represent the decomposition rate constants of the photobleaching of ABDA determined by the slope calculated from the linear fit of ln(A 0/A) vs time. […]
Determination of Lipophilicity. […] The log P oct/PBS values were determined as follows: […]

Row | Compound | decrease in number of colonies (PC-3 cells) | log Poct/PBS [1]
1 | CC(C)C[C@H](NC(=O)[C@H](CC(C)C)NC(=O)[C@H](Cc1c[nH]cn1)NC(=O)CNC(=O)[C@@H](NC(=O)[C@H](C)NC(=O)[C@H](Cc1c[nH]c2ccccc12)NC(=O)[C@H](CCC(N)=O)NC(=O)[C@H](CC(N)=O)NC(=O)CNC(=O)[C@H](CC(C)C)NC(=O)[C@H](CCCNC(=N)N)NC(=O)[C@H](CCC(N)=O)NC(=O)/C=C/c1ccc(-c2nccc3c4ccccc4n(C)c23)nc1)C(C)C)C(N)=O [Ir-BN] (X1-QRLGNQWAVGHLL-NH2) | 34.7% | –
2 | Cn1c2ccccc2c2ccnc(-c3ccc(/C=C/C(=O)O)cn3)c21.[Cl-].[Ir+3].[c-]1ccccc1-c1ccccn1.[c-]1ccccc1-c1ccccn1 [Ir-H] | 27.3% | 1.80
3 | COC(=O)/C=C/c1ccc(-c2nccc3c4ccccc4n(C)c23)nc1.[Cl-].[Ir+3].[c-]1ccccc1-c1ccccn1.[c-]1ccccc1-c1ccccn1 [Ir-Me] | – | 2.03
4 | Cn1c2ccccc2c2ccnc(-c3ccc(/C=C/C(=O)O)cn3)c21.[Cl-].[Cl-].[Ru+2].c1ccc(-c2ccccn2)nc1.c1ccc(-c2ccccn2)nc1 [Ru-H] | No effect | −1.10
